From patent publication US8809341B2, “2,4-pyrimidinediamine compounds and uses as anti-proliferative agents” (Rigel Pharmaceuticals, Inc., priority 2003, dated 2014)
Where two headings read alike, the source gives them in different places.

Legend:
SKMEL28 = assay: in vitro antiproliferation assay, SKMEL28 (breast/p53mut); type: cell-based
Procedure: (§1) The IC50 values of various compounds against a various different tumor cell lines were determined using standard in vitro antiproliferation assays. The tumor cell lines tested were as follows: A549 (lung); H1299 (lung), ACHN (kidney/p53 wt), CAKI (renal cell carcinoma), NCI-H460 (lung); HCT116 (colon/p53w0; HELA (cervix/p53 wt), HUH7 (liver/p53 wt), HUVEC (primary endothelial), LNCAP (prostate), HT-29 (colon); MCF-7 (breast); MCF-7 (breast/ER positive), MDA MB435S (breast); MDA MB231 (breast/ER negative), DU145 (prostate); BxPC-3 (pancreatic); SKOV-3 (ovarian); HepG2 (hepatic), NDHF primary normal human dermal fibroblast), SKMEL28 (breast/p53mut), SKMEL5 (breast/p53 wt), U20S (bone) and PC3 (prostate). […] A blank indicates the specified compound was not tested against the specified cell line.
(§2) Many of the compounds were tested against other cell lines. Their activity is reported in TABLE 15, below, where +”, “−”, “−/+” or “+/−” values are as described for TABLES 1-14. Where the cell line includes a value in a parenthetical, the value indicates the seeding density at which the assay was performed

HUH7 = assay: in vitro antiproliferation assay, HUH7 (liver/p53 wt); type: cell-based
Procedure: as §1, §2

LNCAP = assay: in vitro antiproliferation assay, LNCAP (prostate); type: cell-based
Procedure: as §1, §2

NDHF = assay: in vitro antiproliferation assay, NDHF (primary normal human dermal fibroblast); type: cell-based
Procedure: as §1, §2

HCT116 = assay: in vitro antiproliferation assay, HCT116 (colon); type: cell-based
Summary of the method: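 IC50 is the reported value, taken from a conventional in vitro antiproliferation assay. Seeding density is indicated by any parenthetical figure attached to the cell line.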

H1299 cells = assay: in vitro antiproliferation assay, H1299 (lung); type: cell-based
Summary of the method: (§3)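 IC50 values came from standard antiproliferation testing in cultured tumour cells; the A549 and H1299 lines are of lung origin.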

A549 cells = assay: in vitro antiproliferation assay, A549 (lung); type: cell-based
Summary of the method: as §3

U20S = assay: in vitro antiproliferation assay, U20S (bone); type: cell-based
Procedure: as §1, §2

CAKI = assay: in vitro antiproliferation assay, CAKI (renal cell carcinoma); type: cell-based
Procedure: as §1, §2

HUVEC = assay: in vitro antiproliferation assay, HUVEC (primary endothelial); type: cell-based
Procedure: as §1, §2

SKMEL5 = assay: in vitro antiproliferation assay, SKMEL5; type: cell-based
Procedure: as §1, §2

ACHN = assay: in vitro antiproliferation assay, ACHN (kidney/p53 wt); type: cell-based
Procedure: as §1, §2

HELA = assay: in vitro antiproliferation assay, HELA (cervix/p53 wt); type: cell-based
Procedure: as §1, §2

MCF-7 = assay: in vitro antiproliferation assay, MCF-7 (breast/ER positive); type: cell-based
Procedure: as §1, §2

MDA MB231 = assay: in vitro antiproliferation assay, MDA MB231 (breast/ER negative); type: cell-based
Procedure: as §1, §2

[1] = tested on: tumors generated from A549 cells; assay: in vivo xenograft experiment, tumors generated from A549 cells; conditions: mice
Procedure: Compounds 107, 858, 164, 211 and 156 were tested for their ability to shrink tumors generated from A549 cells in standard xenograft experiments. Compounds 141 and 211 were tested against H1299 tumors.

[2] = HCT116 (colon), read-out: HCT116

Row | SMILES | IC50 (SKMEL28) [µM] | IC50 (HUH7) [µM] | IC50 (LNCAP) [µM] | IC50 (HCT116; [2]) [µM] | IC50 (CAKI) [µM] | IC50 (SKMEL5) [µM] | IC50 (ACHN) [µM] | IC50 (HELA) [µM] | IC50 (NDHF) [µM] | IC50 (U20S) [µM] | IC50 (HUVEC) [µM] | other results
1 | COC(=O)N1CCN(c2ccc(Nc3ncc(F)c(NC4CCC4)n3)cc2)CC1 [compound 107] | ≤ 20 | ≤ 20 | ≤ 20 | > 20 | ≤ 20 | ≤ 20 | ≤ 20 | ≤ 20 | ≤ 20 | ≤ 20 | ≤ 20 | IC50 (MCF-7; MCF7, seeding density 2K, read-out: MCF7(2K)): ≤ 20 µM; IC50 (MCF-7; MCF7, seeding density 4K, read-out: MCF7(4K)): ≤ 20 µM; IC50 (H1299 cells; IC50 class against H1299 (lung) tumor cells): ≤ 20 µM; IC50 (A549 cells; IC50 class against A549 (lung) tumor cells): ≤ 20 µM; IC50 (MDA MB231; MDA-MB-231, seeding density 2K, read-out: MDA-MB-231(2K)): ≤ 20 µM; IC50 (MDA MB231; MDA-MB-231, seeding density 4K, read-out: MDA-MB-231(4K)): ≤ 20 µM
2 | Fc1cnc(Nc2cccc(-c3ncco3)c2)nc1Nc1cc(C2CC2)[nH]n1 [compound 211] |  |  |  |  |  |  |  |  |  |  |  | IC50 (MCF-7; Homo sapiens, MCF7, seeding density 2K, read-out: MCF7(2K)): ≤ 20 µM; IC50 (MCF-7; Homo sapiens, MCF7, seeding density 4K, read-out: MCF7(4K)): ≤ 20 µM; IC50 (HCT116; Homo sapiens, HCT-116, HCT116 (colon), read-out: HCT116): ≤ 20 µM; IC50 (H1299 cells; Homo sapiens, NCI-H1299, IC50 class against H1299 (lung) tumor cells): ≤ 20 µM; IC50 (A549 cells; Homo sapiens, IC50 class against A549 (lung) tumor cells): ≤ 20 µM; IC50 (MDA MB231; Homo sapiens, MDA-MB-231, seeding density 2K, read-out: MDA-MB-231(2K)): ≤ 20 µM; IC50 (MDA MB231; Homo sapiens, MDA-MB-231, seeding density 4K, read-out: MDA-MB-231(4K)): ≤ 20 µM; Preliminary Results: reduction in tumor size ([1]; 25 mg/kg bid, 100% DMSO): 23.2%; IC50 (HELA; Homo sapiens): ≤ 20 µM
3 | CN1CCN(c2ccc(Nc3ncc(F)c(NC4CCCCC4)n3)cc2)CC1.Cl [compound 156] |  |  |  |  |  |  |  |  |  |  |  | Preliminary Results: reduction in tumor size ([1]; 50 mg/kg Bid, daily, 0.9% Saline): 60.4%

Second part, led by results:

Row | IC50 (SKMEL28) [µM] | IC50 (HUH7) [µM] | IC50 (LNCAP) [µM] | IC50 (HCT116; [2]) [µM] | IC50 (CAKI) [µM] | IC50 (SKMEL5) [µM] | IC50 (ACHN) [µM] | IC50 (HELA) [µM] | SMILES | IC50 (NDHF) [µM] | IC50 (U20S) [µM] | IC50 (HUVEC) [µM] | other results
4 | ≤ 20 | ≤ 20 | ≤ 20 | > 20 | ≤ 20 | ≤ 20 | ≤ 20 | ≤ 20 | CCOC(=O)c1cc2cccc(Nc3ncc(F)c(Nc4cc(C)cc(C)c4)n3)c2[nH]1 [compound 646] | ≤ 20 | ≤ 20 | ≤ 20 | IC50 (HCT116; Table 7, in vitro antiproliferation, colon cells, read-out: HTC116): ≤ 20 µM; IC50 (H1299 cells; Table 7, in vitro antiproliferation, H1299 (lung) cells): ≤ 20 µM; IC50 (A549 cells; Table 7, in vitro antiproliferation, A549 (lung) cells): ≤ 20 µM
5 | ≤ 20 | ≤ 20 | ≤ 20 | ≤ 20 | ≤ 20 | ≤ 20 | ≤ 20 | ≤ 20 | Cc1cc(Nc2ncc(F)c(Nc3cc(C)c(O)c(Cl)c3)n2)cc(Cl)c1O [compound 942] | ≤ 20 | ≤ 20 | ≤ 20 | IC50 (H1299 cells; H1299 (lung) cells, antiproliferation): ≤ 20 µM; IC50 (A549 cells; A549 (lung) cells, antiproliferation): ≤ 20 µM
